Data as given in patent US20250360145A1, “CSF-1R INHIBITORS AND USES THEREOF” (Myrobalan Therapeutics, Inc., priority 2022, published 2025).
Where two headings read alike, the source gives them in different places.

Key:
EOC2 cell = test: Cell proliferation assay, EOC2; format: cell-based, mouse
CSF-1R = CSF-1R (Homo sapiens (Human), UniProt P07333); test: Biochemical HTRF kinase assay, CSF-1R; conditions: Table 2; recombinant human CSF-1R;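 further: enzyme incubated with inhibitor plus a substrate and ATP mix for one hour at room temperature before HTRF detection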
[1] = system: Ba/F3_CSF-1R (stably expressing human CSF-1R kinase); test: Cell proliferation assay, Ba/F3_CSF-1R; format: cell-based
[2] = Mus musculus, 72 h, EOC2 cells, 72 hours treatment, read-out: ECO2 EC50
[3] = Ba/F3_CSF-1R cells, 72 hours treatment, read-out: CSF-1R BaF3 EC50
[4] = EOC2 cells, 72 hours treatment, read-out: ECO2 EC50
[5] = BaF3, 72 h, Ba/F3_CSF-1R cells, 72 hours treatment, read-out: CSF-1R BaF3 EC50

Chain of CSF-1R (P07333 20-972): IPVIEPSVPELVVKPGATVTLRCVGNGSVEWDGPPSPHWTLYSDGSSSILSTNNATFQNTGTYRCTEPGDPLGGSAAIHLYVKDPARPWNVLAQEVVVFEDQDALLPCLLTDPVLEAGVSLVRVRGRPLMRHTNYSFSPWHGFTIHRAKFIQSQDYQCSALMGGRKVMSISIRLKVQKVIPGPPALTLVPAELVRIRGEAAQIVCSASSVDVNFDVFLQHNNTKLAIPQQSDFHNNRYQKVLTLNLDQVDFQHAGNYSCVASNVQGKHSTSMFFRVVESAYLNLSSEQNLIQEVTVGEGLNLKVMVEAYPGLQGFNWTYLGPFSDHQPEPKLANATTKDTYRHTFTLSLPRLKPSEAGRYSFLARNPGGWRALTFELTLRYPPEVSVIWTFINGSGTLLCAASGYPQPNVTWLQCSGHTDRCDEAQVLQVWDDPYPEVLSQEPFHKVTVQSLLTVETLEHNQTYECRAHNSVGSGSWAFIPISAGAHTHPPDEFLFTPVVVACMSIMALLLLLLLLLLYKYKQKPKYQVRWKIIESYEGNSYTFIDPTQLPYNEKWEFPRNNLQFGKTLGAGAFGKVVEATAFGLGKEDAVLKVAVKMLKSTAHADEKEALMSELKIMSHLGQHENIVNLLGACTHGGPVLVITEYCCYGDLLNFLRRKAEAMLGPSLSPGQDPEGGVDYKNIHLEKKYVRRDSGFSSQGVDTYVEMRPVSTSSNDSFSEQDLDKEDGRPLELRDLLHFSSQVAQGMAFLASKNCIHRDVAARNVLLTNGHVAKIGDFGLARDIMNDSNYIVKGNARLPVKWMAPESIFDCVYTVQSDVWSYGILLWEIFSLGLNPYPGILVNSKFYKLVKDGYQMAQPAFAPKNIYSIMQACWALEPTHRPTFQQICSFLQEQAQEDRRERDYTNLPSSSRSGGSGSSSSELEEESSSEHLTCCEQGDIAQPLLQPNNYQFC

Row | EC50 ([1]; BaF3, 72 h, read-out: CSF-1R BaF3 EC50 (nM)) [nM] | SMILES | EC50 (EOC2 cell; [2]) [nM] | IC50 (CSF-1R) [nM] | EC50 [1, 3] [nM] | EC50 (EOC2 cell; [4]) [nM] | EC50 [1, 5] [nM] | EC50 (EOC2 cell; Mus musculus, 72 h, read-out: ECO2 EC50 (nM)) [nM]
1 | – | COc1cnc2c(Cc3cnc(OCc4cnc5c(c4)CC[C@H]5OC)c(OC)c3)ccnc2c1 (stereo in doubt) [Example 104] | 41 | 2.4 | 53.2 | – | – | –
2 | – | COc1cnc2c(Cc3cnc(OCc4cnc5c(c4)CC[C@H]5OC)c(OC)c3)ccnc2c1 (stereo in doubt) [Example 105] | – | 2.4 | 108 | 65 | – | –
3 | – | COc1cnc2c(Cc3cnc(OCc4cc5n(n4)CCO[C@H]5C)c(OC)c3)ccnc2c1 (stereo in doubt) [Example 114] | – | 1.7 | 75.7 | 37.9 | – | –
4 | – | COc1cnc2c(Cc3cnc(OCc4cc5n(n4)CCO[C@H]5C)c(OC)c3)ccnc2c1 (stereo in doubt) [Example 115] | – | 4 | 158 | 81.9 | – | –
5 | – | COc1ccc(COc2ccc(Cc3ccnc4cc(OC)ccc34)cc2OC)cc1 [Example 1] | 42 | – | – | – | 42.6 | –
6 | – | COc1ccc(COc2ccc(Cc3ccnc4cnccc34)cc2OC)cc1 [Example 2, 4-(3-methoxy-4-((4-methoxybenzyl)oxy)benzyl)-1,7-naphthyridine] | 126 | 13.4 | – | – | 75 | –
7 | – | COc1ccc(COc2ccc(Cc3ccnc4ccccc34)cc2OC)cc1 [Example 3] | – | – | – | – | 89.2 | –
8 | – | COc1ccc(COc2ccc(Cc3ccnc4cc(OC)cnc34)cc2OC)cc1 [Example 4] | 22.6 | 8.7 | – | – | 44.6 | –
9 | – | COc1ccc(COc2ccc(Cc3ncnc4cc(OC)ccc34)cc2OC)cc1 [Example 5] | 310 | 21 | – | – | 263 | –
10 | – | COc1ccc2c(Cc3ccc(OCc4ccn5ccnc5c4)c(OC)c3)ccnc2c1 [Example 6, 4-(4-(imidazo[1,2-a]pyridin-7-ylmethoxy)-3-methoxybenzyl)-7-methoxy quinoline] | 592 | 8.2 | – | – | 551 | –
11 | – | COc1ccc2c(Cc3ccc(OCc4ccc5nccn5c4)c(OC)c3)ccnc2c1 [Example 7] | 328 | 5.3 | – | – | 305 | –
12 | – | COc1ccc2c(Cc3ccc(OCc4cccnc4)c(OC)c3)ccnc2c1 [Example 8] | – | – | – | – | 546 | –
13 | – | COc1ccc2c(Cc3ccc(OCc4ccccn4)c(OC)c3)ccnc2c1 [Example 9] | – | 169 | – | – | 901 | –
14 | – | COc1ccc2c(Cc3ccc(OCc4ccncc4)c(OC)c3)ccnc2c1 [Example 10] | – | 118 | – | – | > 1000 | –
15 | – | COc1ccc2c(Cc3ccc(OCc4nc5ccccc5n4C)c(OC)c3)ccnc2c1 [Example 11] | – | 149 | – | – | > 1000 | –
16 | – | COc1ccc2c(Cc3ccc(OCc4ccc5cnn(C)c5c4)c(OC)c3)ccnc2c1 [Example 12] | – | 299 | – | – | > 1000 | –
17 | – | COc1ccc(COc2ncc(Cc3ccnc4cc(OC)ccc34)cc2OC)nc1 [Example 13, 7-methoxy-4-((5-methoxy-6-((5-methoxypyridin-2-yl)methoxy)pyridin-3-yl)methyl)quinolone] | 151 | – | – | – | 176 | –
18 | – | COc1ccc2c(Cc3ccc(OCc4ccc(C(F)(F)F)cc4)c(OC)c3)ccnc2c1 [Example 14] | 132 | 118 | – | – | 157 | –
19 | – | COc1ccc(COc2ccc(Cc3ccnc4ccncc34)cc2OC)cc1 [Example 17] | 180 | 5.7 | – | – | 185 | –
20 | – | COc1ccc2c(Cc3ccc(OCc4cn5ccccc5n4)c(OC)c3)ccnc2c1 [Example 18, 4-(4-(imidazo[1,2-a]pyridin-2-ylmethoxy)-3-methoxybenzyl)-7-methoxy quinoline] | 272 | 9.4 | – | – | 196 | –
21 | – | COc1ccc(COc2ncc(Cc3ccnc4cnccc34)cc2OC)nc1 [Example 19, 4-((5-methoxy-6-((5-methoxypyridin-2-yl)methoxy)pyridin-3-yl)methyl)-1,7-naphthyridine] | – | 47.6 | – | – | > 1000 | –
22 | – | COc1ccc2c(Cc3ccc(OCc4ccc5ccnn5c4)c(OC)c3)ccnc2c1 [Example 20] | 130 | 11 | – | – | 134 | –
23 | – | COc1ccc2c(Cc3ccc(OCc4ccc5ncnn5c4)c(OC)c3)ccnc2c1 [Example 21] | 492 | 12.6 | – | – | 509 | –
24 | – | COc1ccc(COc2ncc(Cc3ccnc4cncnc34)cc2OC)nc1 [Example 22, 8-((5-methoxy-6-((5-methoxypyridin-2-yl)methoxy)pyridin-3-yl)methyl)pyrido[3,2-d]pyrimidine] | – | 64 | – | – | > 1000 | –
25 | – | COc1ccc2c(Cc3ccc(OCc4cc(C)nn4C)c(OC)c3)ccnc2c1 [Example 23] | – | 8 | – | – | 323 | –
26 | – | COc1ccc(COc2ccc(Cc3ccnc4ccc(F)cc34)cc2OC)cc1 [Example 24] | 239 | 25 | – | – | 177 | –
27 | – | COc1ccc2c(Cc3ccc(OCc4ccn(C)c(=O)c4)c(OC)c3)ccnc2c1 [Example 25] | – | 40 | – | – | 583 | –

Row | EC50 ([1]; BaF3, 72 h, read-out: CSF-1R BaF3 EC50 (nM)) [nM] | SMILES | EC50 (EOC2 cell; [2]) [nM] | IC50 (CSF-1R) [nM] | EC50 [1, 3] [nM] | EC50 (EOC2 cell; [4]) [nM] | EC50 [1, 5] [nM] | EC50 (EOC2 cell; Mus musculus, 72 h, read-out: ECO2 EC50 (nM)) [nM]
28 | – | COc1ccc2c(Cc3ccc(OCc4ccc(=O)n(C)c4)c(OC)c3)ccnc2c1 [Example 26] | – | 5 | – | – | 283 | –
29 | – | COc1ccc2c(Cc3ccc(OCc4cccc(C(F)(F)F)c4)c(OC)c3)ccnc2c1 [Example 27] | – | 117 | – | – | 207 | –
30 | – | COc1cccc(COc2ccc(Cc3ccnc4cc(OC)ccc34)cc2OC)c1 [Example 28] | – | 25.7 | – | – | 356 | –
31 | – | COc1ccc2c(Cc3ccc(OCc4ccccc4OC)c(OC)c3)ccnc2c1 [Example 29] | – | 73.9 | – | – | 873 | –
32 | – | COc1ccc2c(Cc3ccc(OCc4ccn5nccc5c4)c(OC)c3)ccnc2c1 [Example 30] | 249 | 7.9 | – | – | 214 | –
33 | – | COc1ccc2c(Cc3cnc(OCc4cnn(C)c4)c(OC)c3)ccnc2c1 [Example 31] | > 1000 | 21.3 | – | – | > 1000 | –
34 | – | COc1cnc2c(Cc3cnc(OCc4ccc(OC)nn4)c(OC)c3)ccnc2c1 [Example 32, 3-methoxy-8-((5-methoxy-6-((6-methoxypyridazin-3-yl)methoxy)pyridin-3-yl)methyl)-1,5-naphthyridine] | 129 | 20.1 | – | – | 267 | –
35 | – | COc1ccc2c(Cc3ccc(OCc4ccc5c(c4)OC(F)(F)O5)c(OC)c3)ccnc2c1 [Example 33] | 89.5 | 203 | – | – | 218 | –
36 | – | COc1ccc2c(Cc3ccc(OCc4cc(C)no4)c(OC)c3)ccnc2c1 [Example 34] | 462 | 23.2 | – | – | 493 | –
37 | – | COc1ccc2c(Cc3ccc(OCc4cnc(C)s4)c(OC)c3)ccnc2c1 [Example 35] | 392 | 16.1 | – | – | 449 | –
38 | – | COc1ccc2c(Cc3ccc(OCc4cc(C)on4)c(OC)c3)ccnc2c1 [Example 36] | 486 | 39.8 | – | – | 637 | –
39 | – | COc1cnc2c(Cc3cnc(OCc4cnn(C)c4)c(OC)c3)ccnc2c1 [Example 37] | > 1000 | – | – | – | > 1000 | –
40 | – | COc1ccc(COc2ncc(Cc3ccnc4cc(OC)cnc34)cc2OC)cc1 [Example 38] | 40.8 | 2.1 | – | – | 210 | –
41 | – | COc1cnc2c(Cc3cnc(OCc4ccc(OC)nc4)c(OC)c3)ccnc2c1 [Example 39] | 32.1 | 1 | – | – | 46.5 | –
42 | – | COc1cnc(COc2ccc(Cc3ccnc4cc(OC)ccc34)cc2OC)nc1 [Example 40] | 956 | 93.7 | – | – | > 1000 | –
43 | – | COc1cnc2c(Cc3cnc(OCc4cc(F)cnc4OC)c(OC)c3)ccnc2c1 [Example 41] | > 1000 | 39.9 | – | – | > 1000 | –
44 | – | COc1cnc2c(Cc3cnc(OCc4cnc(C)s4)c(OC)c3)ccnc2c1 [Example 42] | 408 | 14.7 | – | – | 510 | –
45 | – | COc1cnc2c(Cc3cnc(OCc4cnn(C(C)C)c4)c(OC)c3)ccnc2c1 [Example 43] | > 1000 | 2.8 | – | – | > 1000 | –
46 | – | COc1cnc2c(Cc3cnc(OCc4cnc(OC)cn4)c(OC)c3)ccnc2c1 [Example 44] | 171 | 8.6 | – | – | 457 | –
47 | – | COc1cnc2c(Cc3cnc(OCc4cc(C)no4)c(OC)c3)ccnc2c1 [Example 46, 5-(((3-methoxy-5-((7-methoxy-1,5-naphthyridin-4-yl)methyl)pyridin-2-yl)oxy)methyl)-3-methylisoxazole] | 201 | 22.4 | – | – | 332 | –
48 | – | COc1cnc2c(Cc3cnc(OCc4ccc(Cl)cn4)c(OC)c3)ccnc2c1 [Example 58] | 42.9 | – | – | – | 93.9 | –
49 | 177 | COc1ccc(COc2ncc(Cc3ccnc4cc(Cl)cnc34)cc2OC)nc1 [Example 62, 3-chloro-8-((5-methoxy-6-((5-methoxypyridin-2-yl)methoxy)pyridin-3-yl)methyl)-1,5-naphthyridine] | – | – | – | – | – | 496
50 | – | COc1ccc(COc2ncc(Cc3ccnc4cc(N5CCOCC5)cnc34)cc2OC)nc1 [Example 119, 4-(8-((5-methoxy-6-((5-methoxypyridin-2-yl)methoxy)pyridin-3-yl)methyl)-1,5-naphthyridin-3-yl)morpholine] | 8 | – | – | – | 15.9 | –
51 | – | COc1ccc(COc2ncc(Cc3ccnc4cc(N5CC6CC(C5)O6)cnc34)cc2OC)nc1 [Example 131] | 6.7 | – | – | – | 9.9 | –
52 | – | COc1ccc(COc2ncc(Cc3ccnc4cc(C5CC5)cnc34)cc2OC)nc1 [Example 137] | 65 | – | – | – | 46.7 | –
53 | – | COc1cnc2c(Cc3ccc4nc(N5CCC(OC)CC5)cnc4c3)ccnc2c1 [Example 153, 3-methoxy-8-[[2-(4-methoxy-1-piperidyl)quinoxalin-6-yl]methyl]-1,5-naphthyridine] | > 1000 | – | – | – | > 1000 | –
